Assay results from paper PMC3055912, “A Method for Structure–Activity Analysis of Quorum-Sensing Signaling Peptides from Naturally Transformable Streptococci” (Biological Procedures Online, 2009).
Peptide text beside a SMILES is read from it.

How the values were obtained:
[1] = target: quorum sensing (ComCDE signaling) in S. mutans lacZ reporter strains (Streptococcus mutans serotype c, UniProt Q8DS94); settings: truncated peptides; cited from earlier work
Description: Based on the three-dimensional structures of S. mutans wild-type signaling peptide UA159sp (CSP) and C-terminally truncated peptide TPC3 from mutant JH1005 defective in genetic competence, we designed and synthesized a series of truncated peptides and peptides with amino acid substitutions. […] The C-terminal structural motif consisting of a sequence of polar hydrophobic charged residues is crucial for activating the signal transduction pathway, while the core α-helical structure ext ...

[2] = tested on: nlmAB promoter (PnlmAB::lacZ) in comC mutant SMdC; test: nlmAB-lacZ reporter β-gal activity, strain SMdC-PnlmAB; assay type: cell-based, Streptococcus mutans; settings: for time for which the high level of β-gal activity is maintained / time of highest level of β-gal activity after addition of peptide: SMdC-PnlmAB, time-course experiment
Description: (§1) To assay QS activation in response to addition of a peptide, we constructed two types of lacZ transcriptional reporter strains that represented two levels of QS-activated gene expression. The first was a lacZ reporter gene fused to the comDE promoter, which allowed monitoring of the activity of the comDE promoter in response to a test peptide. The second strain was a lacZ reporter gene fused to the promoter of nlmAB, the gene encoding a nonlantibiotic bacteriocin and its expression directly controlled by the ComE [6, 22]. This strain allowed assay of comDE-controlled bacteriocin production.
For the second reporter strain, we generated a chromosomal nlmAB–lacZ fusion strain by transforming a PnlmAB::lacZ fusion construct pOMZ47 [6] into both comC mutant SMdC and wild-type GS5. The resulting reporter strains were confirmed by PCR and sequencing of the fusion sites as described previously. The confirmed reporter strains were respectively named SMdC-PnlmAB (PnlmAB::lacZ, comC^-, Kan^r, Spec^r) and SMGS5-PnlmAB (PnlmAB::lacZ, Kan^r). The strain SMGS5-PnlmAB was used a positive control.
A lacZ reporter assay was performed to monitor quorum-sensing activation using the same method as described previously. The newly constructed lacZ reporter strains were used to assay and quantify β-galactosidase activity in response to test peptides. Aliquots of samples were taken to prepare cell lysates at different time points T0, T15, T30, T60, and T120 after addition of a test peptide. Protein concentrations of the supernatants were determined by Bio-Rad protein assay (Bio-Rad). Specific β-gal activities (A420 min^-1 mL^-1 mg^-1 protein) were calculated from triplicate samples from two independent experiments. The data from the β-gal activity experiments were then normalized against negative or background controls and plotted as percentages of maximal activation versus log peptide concentrations. The half maximal activation concentration (AC50) was determined from the sigmoidal dose–response curve using Prism 4 (Graphpad, San Diego, CA, USA).

[3] = tested on: S. mutans comC mutant SMdC; test: CSP-dependent transformation (genetic competence) assay; assay type: cell-based, Streptococcus mutans; settings: data not shown
Description: To determine if synthetic peptides activated quorum sensing for induction of genetic competence, we used the comC deletion mutant that was unable to produce, but still responded to CSP, to assay peptide-dependent genetic transformation using the method as described previously. A streptococcal suicide vector pVA-gtfA, which harbored a 2.4-kb fragment of the S. mutans gtfA gene and an erythromycin resistance marker, was used as transforming DNA. The wild-type GS5 was used as a positive control, while both ComC (SMdC) and ComE mutants (SMdE) were used as negative controls. The wild-type strain was grown on Todd–Hewitt yeast extract (THYE) medium, whereas the mutants were maintained on THYE plus spectinomycin. When culture reached to early mid-log phase (OD600 ≈ 0.25), an aliquot of CSP was added into the culture at a final concentration of 50 nM (AC50 ≈ 0.25 nM). […] Transformation frequency was expressed as percentage of transformants against total viable recipient cells per milliliter cell suspension. […]
7. All the plates are incubated at 37°C for 2 days before assessment of transformation frequency, which is expressed as percentages of transformants (erythromycin-resistant colonies) against total recipient cells per […] cell suspension. […]

[4] = tested on: S. mutans comC mutant SMdC (indicator strain Streptococcus sanguinis SK108); test: QS-controlled bacteriocin production, agar plate overlay assay; assay type: cell-based; settings: for level of bacteriocins induced compared with wild-type GS5: comC mutant SMdC with peptide, inhibitory zone against S. sanguinis SK108, Figure 5
Procedure: The S. mutans comC mutant SMdC as well as its parent GS5 and wild-type strain UA159 (positive controls) were used to assay for bacteriocin production using a modified agar plate method. Briefly, an aliquot of mid-log phase cells of the S. mutans wild-type strains and mutant SMdC grown under a condition with or without use of CSP or a test peptide were stabbed onto THYE agar plates. The plates were incubated anaerobically at 37°C for 6 h before carefully overlaid with 100 μL of cell suspension (about 10^6 CFU/mL^-1) of an indicator strain Streptococcus sanguinis SK108. The plates were further incubated anaerobically at 37°C for 24 h before inspection of bacteriocin production. The S. mutans strains showing an inhibitory zone around the stabs were scored as positive for bacteriocin production. The plates were then photographed for records.

[5] = aqueous buffer 50 mM K2HPO4/KH2PO4 pH 7.0; NMR needs 1.0 to 10 mM peptide
Procedure: For NMR studies, buffers, co-solvents, and additives were hydrogen-free or deuterated. Samples could be dissolved in as little as 10 μL, but typically, spectrometers were designed for sample volumes of at least 500 μL. Due to the inherently low sensitivity, concentrations of peptides ranged from 1.0 to 10 mM [13].
In our study, synthetic peptides CSP (UA159sp) and TPC3 for CD and NMR were dissolved in 95/5/0%, 70/0/30%, 30/0/70%, or 0/0/100% aqueous buffer/D2O/TFE-d2, or 95/5 aqueous buffer/D2O with 300 mM DPC-d38 (98 atom %D), where TFE refers to trifluoroethanol and DPC-d38 refers to perdeuterated dodecylphosphocholine [10, 13]. The aqueous buffer used for sample preparation contained 50 mM K2HPO4/KH2PO4 at pH 7.0. The concentration of peptides for solutions containing 100% TFE-d2 or DPC-d38 was 2 and 5 mM.

[6] = tested on: comDE promoter (PcomDE::lacZ) in comC mutant SMdC; test: comDE-lacZ reporter β-gal activity, strain SMdC-pYH2; assay type: cell-based, Streptococcus mutans; settings: background control SMdC-pSL showed no significant difference
Description: as §1
For the first reporter strain, we simply transformed previously constructed vector pYH2 [10] into the comC mutant (SMdC) to generate SMdC-pYH2 (PcomDE::lacZ, comC^-, Spec^r, Kan^r). pYH2 was constructed in such a way that the comDE promoter was fused to a promoterless lacZ gene on the backbone of Streptococcus–Escherichia coli shuttle vector pSL. […] These strains were then assessed for lacZ reporter activity in response to addition of peptides.
A lacZ reporter assay was performed to monitor quorum-sensing activation using the same method as described previously. The newly constructed lacZ reporter strains were used to assay and quantify β-galactosidase activity in response to test peptides. […] Protein concentrations of the supernatants were determined by Bio-Rad protein assay (Bio-Rad). […]

[7] = tested on: comDE promoter (PcomDE::lacZ) in comC mutant SMdC; settings: SMdC-pYH2; cited from earlier work
Procedure: We also used this mutant (SMdC) as a host to generate two types of lacZ transcriptional reporter fusion strains to assay the promoter activity of QS-controlled target genes, comDE and nlmAB, in response to addition of CSP. The lacZ reporter strain, SMdC-pYH2 (PcomDE::lacZ, comC^-, Spec^r, Kan^r), along with its background control strain SMdC-pSL (comC^-, Spec^r, Kan^r) were then assayed for β-galactosidase activity.

quorum sensing (ComCDE signaling) in S. mutans lacZ reporter strains, sequence (Q8DS94 entry or part of it): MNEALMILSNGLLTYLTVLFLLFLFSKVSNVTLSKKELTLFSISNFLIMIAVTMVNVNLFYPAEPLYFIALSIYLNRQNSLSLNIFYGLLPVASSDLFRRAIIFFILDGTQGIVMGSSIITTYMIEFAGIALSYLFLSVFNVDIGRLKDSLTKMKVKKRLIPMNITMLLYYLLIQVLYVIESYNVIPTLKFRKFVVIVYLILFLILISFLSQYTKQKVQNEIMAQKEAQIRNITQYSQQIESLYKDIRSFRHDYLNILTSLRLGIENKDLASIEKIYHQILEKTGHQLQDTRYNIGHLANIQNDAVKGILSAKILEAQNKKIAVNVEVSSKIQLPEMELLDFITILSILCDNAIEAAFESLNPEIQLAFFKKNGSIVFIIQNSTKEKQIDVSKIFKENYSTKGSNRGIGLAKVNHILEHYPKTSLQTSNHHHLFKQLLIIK

Row | SMILES | agonist function, AC50 compared with CSP [1] | time for which the high level of β-gal activity is maintained [2] | time of highest level of β-gal activity after addition of peptide [2] | level of bacteriocins induced compared with wild-type GS5 [4] | solubility in water for NMR [5] | further results
1 | CC(C)C[C@H](NC(=O)[C@H](C)NC(=O)[C@H](CCC(N)=O)NC(=O)[C@@H](NC(=O)[C@H](Cc1ccccc1)NC(=O)[C@H](CO)NC(=O)[C@H](CCCNC(=N)N)NC(=O)[C@H](CC(N)=O)NC(=O)[C@H](Cc1ccccc1)NC(=O)[C@H](CC(C)C)NC(=O)[C@H](CCCNC(=N)N)NC(=O)[C@H](Cc1ccccc1)NC(=O)[C@H](Cc1ccccc1)NC(=O)[C@@H](NC(=O)[C@H](CO)NC(=O)[C@H](CC(C)C)NC(=O)[C@@H](N)CO)[C@@H](C)O)[C@@H](C)O)C(=O)NCC(=O)N[C@@H](CCCCN)C(=O)O [TPN2] (H-SLSTFFRLFNRSFTQALGK-OH; N-terminus and C-terminus assumed) | functioned as agonists with AC50 values similar to CSP |  |  |  |  | 
2 | CC(C)C[C@H](NC(=O)[C@H](C)NC(=O)[C@H](CCC(N)=O)NC(=O)[C@@H](NC(=O)[C@H](Cc1ccccc1)NC(=O)[C@H](CO)NC(=O)[C@H](CCCNC(=N)N)NC(=O)[C@H](CC(N)=O)NC(=O)[C@H](Cc1ccccc1)NC(=O)[C@H](CC(C)C)NC(=O)[C@H](CCCNC(=N)N)NC(=O)[C@H](Cc1ccccc1)NC(=O)[C@H](Cc1ccccc1)NC(=O)[C@@H](NC(=O)[C@H](CO)NC(=O)[C@H](CC(C)C)NC(=O)[C@H](CO)NC(=O)CNC(=O)[C@@H](N)CO)[C@@H](C)O)[C@@H](C)O)C(=O)NCC(=O)O [TPC1] (H-SGSLSTFFRLFNRSFTQALG-OH; N-terminus and C-terminus assumed) | functioned as agonists with AC50 values similar to CSP |  |  |  |  | 
3 | CC(C)C[C@H](NC(=O)[C@H](C)NC(=O)[C@H](CCC(N)=O)NC(=O)[C@@H](NC(=O)[C@H](Cc1ccccc1)NC(=O)[C@H](CO)NC(=O)[C@H](Cc1ccccc1)NC(=O)[C@H](CC(N)=O)NC(=O)[C@H](Cc1ccccc1)NC(=O)[C@H](CC(C)C)NC(=O)[C@H](CCCNC(=N)N)NC(=O)[C@H](Cc1ccccc1)NC(=O)[C@H](Cc1ccccc1)NC(=O)[C@@H](NC(=O)[C@H](CO)NC(=O)[C@H](CC(C)C)NC(=O)[C@@H](N)CO)[C@@H](C)O)[C@@H](C)O)C(=O)NCC(=O)O [SPA-18] (H-SLSTFFRLFNFSFTQALG-OH; N-terminus and C-terminus assumed) |  | at least 2 h | around 90 min | induce the same level of bacteriocins as GS5 |  | replacement of CSP in activating quorum sensing ([2]; β-gal activity of SMdC-PnlmAB, Figure 4): could completely replace CSP (UA159sp); replacement of CSP in inducing genetic competence [3]: could completely replace CSP (UA159sp); replacement of CSP in inducing bacteriocin production ([4]; Figure 5): could completely replace CSP (UA159sp)
4 | CC(C)C[C@H](NC(=O)[C@H](C)NC(=O)[C@H](CCC(N)=O)NC(=O)[C@@H](NC(=O)[C@H](Cc1ccccc1)NC(=O)[C@H](CO)NC(=O)[C@H](CCCNC(=N)N)NC(=O)[C@H](CC(N)=O)NC(=O)[C@H](Cc1ccccc1)NC(=O)[C@H](CC(C)C)NC(=O)[C@H](CCCNC(=N)N)NC(=O)[C@H](Cc1ccccc1)NC(=O)[C@H](Cc1ccccc1)NC(=O)[C@@H](NC(=O)[C@H](CO)NC(=O)[C@H](CC(C)C)NC(=O)[C@H](CO)NC(=O)CNC(=O)[C@@H](N)CO)[C@@H](C)O)[C@@H](C)O)C(=O)NCC(=O)N[C@@H](CCCCN)C(=O)O [CSP (UA159sp), reference compound] (H-SGSLSTFFRLFNRSFTQALGK-OH) |  | at least 2 h | around 90 min | induce the same level of bacteriocins as GS5 | not soluble enough for extensive NMR studies | induction of β-gal activity upon addition of peptide [6]: induced to express predicted β-gal activity; time after addition at which expression of β-gal activity declined [7]: around 40 min
5 | CC(C)C[C@H](NC(=O)[C@H](CCCNC(=N)N)NC(=O)[C@H](Cc1ccccc1)NC(=O)[C@H](Cc1ccccc1)NC(=O)[C@@H](NC(=O)[C@H](CO)NC(=O)[C@H](CC(C)C)NC(=O)[C@@H](NC(=O)CNC(=O)[C@@H](N)CO)[C@@H](C)O)[C@@H](C)O)C(=O)N[C@@H](Cc1ccccc1)C(=O)N[C@@H](CC(N)=O)C(=O)N[C@@H](CCCNC(=N)N)C(=O)N[C@@H](CO)C(=O)N[C@@H](Cc1ccccc1)C(=O)N[C@H](C(=O)N[C@@H](CCC(N)=O)C(=O)N[C@@H](C)C(=O)O)[C@@H](C)O [TPC3 (JH1005sp)] (H-SGTLSTFFRLFNRSFTQA-OH) |  |  |  |  | not soluble enough for extensive NMR studies | 
